Laboratory results as given in BindingDB's records for patent US12011444 (Idorsia Pharmaceuticals, 2024).
pIC50: −log10 of the molar value.

Assays:
[1] = target: Prostaglandin E2 receptor EP2 subtype (Homo sapiens, UniProt P43116); experiment: hEP2 cAMP Assay
Procedure: Plate is pre-incubated 45 minutes at room temperature. […] Plate is incubated 30 minutes at room temperature. […] For each compound concentration the percentage of cAMP compared to DMSO control value as average±STDEV (each concentration is measured in duplicate) is calculated.

[2] = target: Prostaglandin E2 receptor EP4 subtype (Homo sapiens, UniProt P35408); experiment: hEP4 cAMP Assay
Procedure: Plate is pre-incubated 45 minutes at room temperature. Subsequently, 2.5 microliters of PGE2 (final conc. 6 nM) are transferred into the assay plate. Plate is incubated 30 minutes at room temperature.

Chain of Prostaglandin E2 receptor EP4 subtype (P35408 whole entry): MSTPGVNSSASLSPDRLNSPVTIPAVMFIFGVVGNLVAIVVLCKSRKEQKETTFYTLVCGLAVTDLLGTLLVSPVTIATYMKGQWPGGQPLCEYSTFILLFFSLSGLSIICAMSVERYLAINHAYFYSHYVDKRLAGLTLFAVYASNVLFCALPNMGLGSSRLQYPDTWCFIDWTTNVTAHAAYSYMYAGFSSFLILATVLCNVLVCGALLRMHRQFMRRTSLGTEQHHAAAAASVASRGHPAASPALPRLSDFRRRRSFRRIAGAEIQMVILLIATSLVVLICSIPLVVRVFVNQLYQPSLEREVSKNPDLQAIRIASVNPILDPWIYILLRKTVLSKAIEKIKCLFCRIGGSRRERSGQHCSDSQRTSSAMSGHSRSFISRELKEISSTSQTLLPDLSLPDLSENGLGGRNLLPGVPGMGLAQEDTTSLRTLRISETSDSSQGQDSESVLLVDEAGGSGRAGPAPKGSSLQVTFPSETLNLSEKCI
Chain of Prostaglandin E2 receptor EP2 subtype (P43116 whole entry): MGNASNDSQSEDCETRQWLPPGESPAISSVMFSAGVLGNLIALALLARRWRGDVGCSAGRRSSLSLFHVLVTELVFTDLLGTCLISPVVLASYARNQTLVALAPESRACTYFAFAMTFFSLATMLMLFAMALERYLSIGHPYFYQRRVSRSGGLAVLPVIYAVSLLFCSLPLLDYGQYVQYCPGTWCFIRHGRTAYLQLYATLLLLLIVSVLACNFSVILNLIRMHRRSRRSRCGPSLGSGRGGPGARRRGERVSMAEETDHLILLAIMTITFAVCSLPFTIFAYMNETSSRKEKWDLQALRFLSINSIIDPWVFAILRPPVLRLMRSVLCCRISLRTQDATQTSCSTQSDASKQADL

SMILES	pIC50 [1]	pIC50 [2]
Cc1ccc(F)c2c1cc(C)n2CCNc1cc(-c2ccc3c(c2)CNC3=O)ncn1 [US12011444, Example 65]	7.39	6.16
COc1ccc(F)c2c1cc(C)n2CCNc1cc(-c2ccc(C(=O)O)c(N)c2)ncn1 [US12011444, Example 214]	7.42	6.10
COc1ccc(F)c2c1cc(C)n2CCNc1cc(-c2ccc(C(=O)O)c(C(C)(C)C)c2)ncn1 [US12011444, Example 535]	7.17	6.87
Cc1cc(F)cc2c1cc(C)n2CCNc1cc(-c2ccc(C(=O)O)c(NCC(F)(F)F)c2)ncn1 [US12011444, Example 559]	8.40	6.61
COc1cc(F)c(F)c2c1cc(C)n2CCNc1cc(-c2ccc3oc(C)nc3c2)ncn1 [US12011444, Example 689]	6.68	6.25
Cc1cc(F)cc2c1cc(C)n2CCNc1cc(-c2cccc(-n3cccn3)c2)ncn1 [US12011444, Example 729]	7.35	6.11
CCOc1cc(-c2cc(NCCn3c(C)cc4c(OC)ccc(F)c43)ncn2)ccc1C(=O)NOCc1ccccc1 [US12011444, Example 766]	7.24	7.10
CCOc1cc(-c2cc(NCCn3c(C)cc4c(OC)ccc(F)c43)ncn2)ccc1C(=O)NOCCO [US12011444, Example 769]	7.96	6.59
CCOc1cc(-c2cc(NCCn3c(C)cc4c(C)ccc(F)c43)ncn2)ccc1C(=O)NOCCO [US12011444, Example 771]	7.72	6.51
COc1cc(F)cc2c1cc(C)n2CCNc1cc(-c2cc(O)cs2)ncn1 [US12011444, Example 801]	7.70	6.86
